We go through one compound from US10723706B2, “Perk inhibitors and uses thereof in treating diseases associated with aggregation-prone proteins” (Ramot at Tel-Aviv University Ltd., priority 2016, dated 2020).

Entries after “also recorded” stand apart in the source; their conditions may differ.

Data set [1] relates to STHdhQ111/111 cells. Put plainly: Rescue from UPR-induced cell death (tunicamycin), PI cell cycle FACS, sub-G0/G1 fraction. The data set is classed as cell-based. How it is done: STHdhQ7/7 and STHdhQ111/111 cells were grown as described in Leitman et al. [PLoS One 2014, 9(3):e90803].
After the indicated treatment times in full medium or in DMEM without serum, cells were incubated with propidium iodide (PI) solution ([…]) and read by flow cytometry as described in Leitman et al. [PLoS One 2014, 9(3):e90803]. Cells in sub-G0/G1 were counted as apoptotic/dead cells.
The activity of the novel inhibitors, compared to A4, in preventing cytotoxicity induced by pathogenic Htt, was then tested. A stable murine striatal cell line expressing full-length polyQ-expanded Htt, STHdhQ^111/111, was used.

Data set [2] relates to cells. Put plainly: Intrinsic cytotoxicity on cells. Format: cell-based.
Data set [3] concerns betaTC-tet pancreatic islet beta-cell line. The data set can be described thus: Toxicity in pancreatic beta cells. The data set is classed as cell-based, mouse. On the procedure:
MK-28 toxicity was tested in pancreatic beta cells, the type of cell that is most sensitive when ER stress response pathways are affected. A conditionally transformed mouse pancreatic islet beta-cell line (betaTC-tet), such as described by Efrat [Ann NY Acad Sci 1999, 875:286-293], was used. These cells produce high amounts of insulin, resulting in a high protein load in the ER, making them very sensitive to ER stress and other stimuli, such as cytokine effects. Compromising any of the UPR branches leads to cytotoxicity in these cells. MK-28 was compared to the ER stressor tunicamycin (Tun).

Data set [4] concerns wild type (WT) mice. Put plainly: Toxicity in wild type mice, continuous subcutaneous dosing by Alzet pump. The data set is classed as in vivo, mouse. The following applies: 6 mg/kg for 2 weeks.
Data set [5] in a line: Pharmacokinetics and blood brain barrier penetration, LC/MS/MS. Format: in vivo, mouse. The following applies: WT mice, 10 mg/kg IP. On the procedure: FIG. 5 Analysis of Pharmacokinetics (PK) and blood brain barrier (BBB) penetration was done in WT mice using a method based on LC/MS/MS.
Pharmacokinetics (PK) and blood brain barrier (BBB) penetration were analyzed in WT mice.

Data set [6] is described as follows: Weight evaluation after pump implantation. The data set is classed as in vivo, mouse. The following applies: TG and WT mice, 7 weeks after pump implantation, 1 mg/kg for 28 days. How it is done:
(§1) For the therapeutic assessment of MK-28 delivery, Alzet pumps model 1004, with a rate of 0.11 μl/hour and 28 days compound delivery were used. Five groups of mice were studied: (1) Transgenic (TG) treated with MK-28, (2) TG without treatment (pumps with vehicle), (3) Wild-type (WT) treated with MK-28, (4) WT without treatment (pumps with vehicle), (5) WT without pumps.
Alzet pumps were implanted at 4 weeks of age and MK-28 was administered at 1 mg/kg with continuous dosing for 28 days. This concentration is in a typical clinical dose range. The mice's motor function and coordination were tested by Rotarod, and limb clasping, ledge, gait and kyphosis were also tested. Vocalization tests were also performed and survival was assessed. Tests were performed in two independent blind experiments.

The test system of data set [7] is R6/2 transgenic mice. Put plainly: Blood glucose levels in R6/2 HD model and WT mice. The data set is classed as in vivo, mouse. How it is done: Animals were treated for 4 weeks starting at 4 weeks of age with 1 mg/ml MK-28 or with vehicle (DMSO/PEG400 1:1), delivered using Alzet pumps. […] N=13 TG, 13 TG+MK28, 16 WT, 15 WT+MK28, 15 None.
The HD mouse model used was the R6/2 transgenic mice model B6CBA-R6/2 (CAG 160) Jackson Lab USA. R6/2 mice express only the exon 1 of the human Htt gene, including 150 CAG repeats driven by the human Htt promoter directly influencing the transgene expression levels and thereby the development of HD-like pathology. Out of all the existing mouse models of HD, the R6/2 mouse is one that develops symptoms the most rapidly and has the most widespread occurrence of Htt inclusions in the brain. Furthermore, these lines are the most widely used in therapeutic trials. In these animals, the initial signs of motor symptoms commence around 3 weeks of age. […] While R6/2 mice are initially hyperactive, they gradually reduce their motor activity and become hypoactive around 8 weeks of age. Their motor function and coordination progressively deteriorate, and can be detected as a reduction in the time they can stay on a rotating rod, the so-called Rotarod. […]
Alzet pumps were implanted at 4 weeks of age and MK-28 was administered at 1 mg/kg with continuous dosing for 28 days. […] Vocalization tests were also performed and survival was assessed. […]

For data set [8], the system named is R6/2 transgenic mice. The data set can be described thus: Rotarod test in R6/2 HD model mice. The data set is classed as in vivo, mouse. Particulars: 1 mg/kg continuous for 28 days. How it is done: Motor activity was assessed by the rotarod test using the San Diego Instrument, Rotor-Rod (San Diego Instruments, CA, USA) (0-25 RPM). R6/2 mice and controls were tested every week after pump transplantation. Each test consisted of 3 consecutive measurements of 5 minutes on 4 rpm, 60 minutes of rest, 3 times 0-40 rpm. The latency to fall was recorded.
as §1
Alzet pumps were implanted at 4 weeks of age and MK-28 was administered at 1 mg/kg with continuous dosing for 28 days. This concentration is in a typical clinical dose range. […] Vocalization tests were also performed and survival was assessed. […]
Rotarod analysis was performed by assessing the maximum performance of each animal during three consecutive trials at different time points. The analysis evaluated the motor behavior of animals starting one week after the pump implantation (equivalent to the mice fifth week of life) and ending by seven weeks after first MK-28 delivery.
(In general: Falling from the rotarod earlier than controls is read as motor impairment.)

Take `CN(/N=C\c1ccc(O)c(O)c1)c1nc(-c2ccccc2)cc(-c2ccccc2)n1` [Compound 3, 2-{N-methyl-N′-(3,4-dihydroxybenzylidene)hydrazinyl}-4,6-diphenylpyrimidine]: the “rescue from UPR-induced cell death (cytotoxicity)” value in data set [1] (Tun for 48 hours) is on record as “significantly more potent than A4”. Also, in data set [1] (additional ER stress caused by tunicamycin), the “fold lower IC50 than A4 for inhibition of cytotoxicity” value was greater than 3 fold. Also, in data set [2], the “intrinsic cytotoxicity on cells” value is “neither MPGL1 nor MK-28 exhibited intrinsic cytotoxicity”. Also, the “toxicity in pancreatic beta cells” value in data set [3] is listed as “very low toxicity”. Besides, the “toxic effects in WT mice” value in data set [4] is “no toxic effects were observed”. Also, in data set [5] (brain), the “BBB penetration, peak brain concentration” value was determined as 57 ng/mL; the T1/2 in brain came to 80 min; the “time of peak brain concentration” value came out at 40 min. Further, in data set [5] (plasma), the T1/2 in plasma stood at 30 min, the peak plasma concentration is 105 ng/mL and the “time of peak plasma concentration” value turned out to be 40 min. Besides, the Kp at 40 minutes in data set [5] (mouse, brain, read-out: BBB penetration peak as percent of the concentration in plasma) is greater than 0.5. Also, the weight versus vehicle result in data set [6] is given as “no significant differences”. Further, the “blood glucose levels in TG mice” value in data set [7] (R6/2 TG mice, 4 weeks treatment by Alzet pump from 4 weeks of age) is “reduced”. The “blood glucose levels in WT mice” value in data set [7] (WT mice, 4 weeks treatment by Alzet pump, listed as MK-28) is “no effect; also recorded: did not affect glucose levels”. In addition, the “Rotarod motor performance of TG mice versus untreated TG” value in data set [8] (R6/2 TG mice, p<0.05, listed as MK-28, 1 mg/kg) is listed as “significant improvement in general motor performance; also recorded: significant improvement in motor function”. For the same compound, the “Rotarod motor performance of WT mice” value in data set [8] (WT mice) is “no compromised motor performance”.
